Columns and labels:
[1] = test system: A549 lung adenocarcinoma cells; assay: Amino acid uptake and inhibition in A549 cells; assay type: cell-based, human; conditions: A549, 30 minutes incubation
[2] = test system: DU145 androgen-independent prostate carcinoma cells; assay: Amino acid uptake and inhibition in DU145 cells; assay type: cell-based, human; conditions: DU145, 30 minutes incubation
U87 glioblastoma cells = assay: Amino acid uptake and inhibition in U87 cells; assay type: cell-based, human; conditions: U87, 30 minutes incubation
[3] = test system: SKOV3 estrogen-positive ovarian adenocarcinoma cells; assay: Amino acid uptake and inhibition in SKOV3 cells; assay type: cell-based, human; conditions: SKOV3, 30 minutes incubation
DU145 tumor xenograft = assay: Biodistribution in DU145 tumor-bearing SCID mice; assay type: in vivo; conditions: listed as (S)-[^18F]FAMP 1
[4] = test system: MDA MB468 tumor xenograft; assay: Biodistribution in MDA MB468 tumor-bearing SCID mice; assay type: in vivo
SKOV3 tumor xenograft = assay: Biodistribution in SKOV3 tumor-bearing SCID mice; assay type: in vivo; conditions: listed as (S)-[^18F]FAMP 1
[5] = test system: SCID mice xenograft tumor models; assay type: in vivo; conditions: in most cases, over tumors and time points
[6] = 15 min post injection, listed as (S)-[^18F]FAMP 1
[7] = 30 min post injection, listed as (S)-[^18F]FAMP 1
[8] = 60 min post injection, listed as (S)-[^18F]FAMP 1
[9] = 120 min post injection, listed as (S)-[^18F]FAMP 1

For `CC(N)(C[18F])C(=O)O` [(S)-[^18F]1] [2-amino-3-[^18F]fluoro-2-methylpropanoic acid], the Cell uptake ([1]; 10 mM BCH) was 1.5±0.1 % ID/5×10^5 cells, the Cell uptake ([1]; 10 mM MeAIB) was 3.9±0.6 % ID/5×10^5 cells and the Cell uptake ([1]; Control (no inhibitor)) was 4.8±0.7 % ID/5×10^5 cells. The Cell uptake ([2]; 10 mM BCH) was 1.6±0.1 % ID/5×10^5 cells, the Cell uptake ([2]; 10 mM MeAIB) was 3.2±0.4 % ID/5×10^5 cells and the Cell uptake ([2]; Control (no inhibitor)) was 3.6±0.3 % ID/5×10^5 cells. The Cell uptake (U87 glioblastoma cells; 10 mM BCH) was 0.8±0.1 % ID/5×10^5 cells, the Cell uptake (U87 glioblastoma cells; 10 mM MeAIB) was 1.0±0.04 % ID/5×10^5 cells and the Cell uptake (U87 glioblastoma cells; Control (no inhibitor)) was 1.5±0.1 % ID/5×10^5 cells. It also gave a Cell uptake ([3]; 10 mM BCH) of 1.7±0.1 % ID/5×10^5 cells, a Cell uptake ([3]; 10 mM MeAIB) of 2.9±0.2 % ID/5×10^5 cells and a Cell uptake ([3]; Control (no inhibitor)) of 3.9±0.2 % ID/5×10^5 cells. For the same compound, the uptake in blood (DU145 tumor xenograft; 15 min post injection) was 5.1±1.1 %ID/g, the uptake in bone (DU145 tumor xenograft; 15 min post injection) was 2.4±1.1 %ID/g and the uptake in brain (DU145 tumor xenograft; 15 min post injection) was 0.6±0.1 %ID/g. The uptake in heart (DU145 tumor xenograft; 15 min post injection) was 3.2±1.2 %ID/g, the uptake in kidney (DU145 tumor xenograft; 15 min post injection) was 36±5.1 %ID/g and the uptake in liver (DU145 tumor xenograft; 15 min post injection) was 3.4±0.6 %ID/g. For the same compound, the uptake in lung (DU145 tumor xenograft; 15 min post injection) was 6.5±1.5 %ID/g, the uptake in muscle (DU145 tumor xenograft; 15 min post injection) was 4.0±0.8 %ID/g and the uptake in pancreas (DU145 tumor xenograft; 15 min post injection) was 55±8.8 %ID/g. The uptake in spleen (DU145 tumor xenograft; 15 min post injection) was 7.9±2.3 %ID/g, the uptake in tumor (DU145 tumor xenograft; 15 min post injection) was 3.2±2.5 %ID/g and the uptake in blood (DU145 tumor xenograft; 30 min post injection) was 2.9±1.1 %ID/g. For the same compound, the uptake in bone (DU145 tumor xenograft; 30 min post injection) was 2.2±0.5 %ID/g, the uptake in brain (DU145 tumor xenograft; 30 min post injection) was 0.5±0.2 %ID/g and the uptake in heart (DU145 tumor xenograft; 30 min post injection) was 3.2±1.3 %ID/g. The uptake in kidney (DU145 tumor xenograft; 30 min post injection) was 21±6.2 %ID/g, the uptake in liver (DU145 tumor xenograft; 30 min post injection) was 2.9±0.9 %ID/g and the uptake in lung (DU145 tumor xenograft; 30 min post injection) was 5.0±2.6 %ID/g. The uptake in muscle (DU145 tumor xenograft; 30 min post injection) was 2.9±0.2 %ID/g, the uptake in pancreas (DU145 tumor xenograft; 30 min post injection) was 37±13 %ID/g and the uptake in spleen (DU145 tumor xenograft; 30 min post injection) was 6.6±1.1 %ID/g. For the same compound, the uptake in tumor (DU145 tumor xenograft; 30 min post injection) was 1.8±0.4 %ID/g, the uptake in blood (DU145 tumor xenograft; 60 min post injection) was 2.4±0.04 %ID/g and the uptake in bone (DU145 tumor xenograft; 60 min post injection) was 2.1±0.2 %ID/g. For the same compound, the uptake in brain (DU145 tumor xenograft; 60 min post injection) was 0.6±0.1 %ID/g, the uptake in heart (DU145 tumor xenograft; 60 min post injection) was 3.5±0.3 %ID/g and the uptake in kidney (DU145 tumor xenograft; 60 min post injection) was 17±0.6 %ID/g. For the same compound, the uptake in liver (DU145 tumor xenograft; 60 min post injection) was 3.3±0.5 %ID/g, the uptake in lung (DU145 tumor xenograft; 60 min post injection) was 3.4±0.8 %ID/g and the uptake in muscle (DU145 tumor xenograft; 60 min post injection) was 2.5±0.3 %ID/g. It also gave an uptake in pancreas (DU145 tumor xenograft; 60 min post injection) of 36±3.1 %ID/g, an uptake in spleen (DU145 tumor xenograft; 60 min post injection) of 9.2±5.1 %ID/g and an uptake in tumor (DU145 tumor xenograft; 60 min post injection) of 3.4±1.7 %ID/g. The uptake in blood (DU145 tumor xenograft; 120 min post injection) was 1.8±0.4 %ID/g, the uptake in bone (DU145 tumor xenograft; 120 min post injection) was 1.6±0.4 %ID/g and the uptake in brain (DU145 tumor xenograft; 120 min post injection) was 0.6±0.1 %ID/g. For the same compound, the uptake in heart (DU145 tumor xenograft; 120 min post injection) was 3.0±0.7 %ID/g, the uptake in kidney (DU145 tumor xenograft; 120 min post injection) was 13±1.7 %ID/g and the uptake in liver (DU145 tumor xenograft; 120 min post injection) was 2.8±0.7 %ID/g. It also gave an uptake in lung (DU145 tumor xenograft; 120 min post injection) of 3.3±1.1 %ID/g, an uptake in muscle (DU145 tumor xenograft; 120 min post injection) of 1.7±0.5 %ID/g and an uptake in pancreas (DU145 tumor xenograft; 120 min post injection) of 28±7.4 %ID/g. It also gave an uptake in spleen (DU145 tumor xenograft; 120 min post injection) of 5.3±1.8 %ID/g, an uptake in tumor (DU145 tumor xenograft; 120 min post injection) of 3.5±0.7 %ID/g and an uptake in blood [4, 6] of 4.2±0.3 %ID/g. For the same compound, the uptake in bone [4, 6] was 2.5±0.3 %ID/g, the uptake in brain [4, 6] was 0.6±0.1 %ID/g and the uptake in heart [4, 6] was 3.4±0.3 %ID/g. It also gave an uptake in kidney [4, 6] of 39±3.3 %ID/g, an uptake in liver [4, 6] of 4.8±0.9 %ID/g and an uptake in lung [4, 6] of 4.5±1.3 %ID/g. For the same compound, the uptake in muscle [4, 6] was 3.9±0.7 %ID/g, the uptake in pancreas [4, 6] was 51±10 %ID/g and the uptake in spleen [4, 6] was 14±2.8 %ID/g. The uptake in tumor [4, 6] was 5.8±0.7 %ID/g, the uptake in blood [4, 7] was 3.6±0.4 %ID/g and the uptake in bone [4, 7] was 2.4±0.6 %ID/g. It also gave an uptake in brain [4, 7] of 0.8±0.2 %ID/g, an uptake in heart [4, 7] of 3.2±0.3 %ID/g and an uptake in kidney [4, 7] of 29±6.1 %ID/g. It also gave an uptake in liver [4, 7] of 4.7±0.8 %ID/g, an uptake in lung [4, 7] of 4.3±1.9 %ID/g and an uptake in muscle [4, 7] of 3.4±0.4 %ID/g. For the same compound, the uptake in pancreas [4, 7] was 56±7.6 %ID/g, the uptake in spleen [4, 7] was 12±4.2 %ID/g and the uptake in tumor [4, 7] was 6.1±1.4 %ID/g. For the same compound, the uptake in tumor ([4]; 60 min post injection) was 4.8±1.2 %ID/g, the uptake in blood [4, 8] was 2.9±1.0 %ID/g and the uptake in bone [4, 8] was 2.2±0.6 %ID/g. The uptake in brain [4, 8] was 0.7±0.1 %ID/g, the uptake in heart [4, 8] was 2.9±0.5 %ID/g and the uptake in kidney [4, 8] was 20±2.7 %ID/g. For the same compound, the uptake in liver [4, 8] was 4.3±0.6 %ID/g, the uptake in lung [4, 8] was 2.6±0.6 %ID/g and the uptake in muscle [4, 8] was 2.7±0.6 %ID/g. For the same compound, the uptake in pancreas [4, 8] was 46±9.5 %ID/g, the uptake in spleen [4, 8] was 7.1±0.9 %ID/g and the uptake in blood [4, 9] was 1.5±0.1 %ID/g. It also gave an uptake in bone [4, 9] of 1.0±0.6 %ID/g, an uptake in brain [4, 9] of 0.8±0.1 %ID/g and an uptake in heart [4, 9] of 2.0±0.2 %ID/g. For the same compound, the uptake in kidney [4, 9] was 11±1.4 %ID/g, the uptake in liver [4, 9] was 2.6±0.2 %ID/g and the uptake in lung [4, 9] was 1.6±0.4 %ID/g. The uptake in muscle [4, 9] was 1.3±0.5 %ID/g, the uptake in pancreas [4, 9] was 23±6.8 %ID/g and the uptake in spleen [4, 9] was 5.6±2.2 %ID/g. The uptake in tumor [4, 9] was 5.0±0.4 %ID/g, the uptake in blood (SKOV3 tumor xenograft; 15 min post injection) was 3.5±0.8 %ID/g and the uptake in bone (SKOV3 tumor xenograft; 15 min post injection) was 2.2±0.7 %ID/g. The uptake in brain (SKOV3 tumor xenograft; 15 min post injection) was 0.4±0.1 %ID/g, the uptake in heart (SKOV3 tumor xenograft; 15 min post injection) was 2.8±0.8 %ID/g and the uptake in kidney (SKOV3 tumor xenograft; 15 min post injection) was 31±6.8 %ID/g. For the same compound, the uptake in liver (SKOV3 tumor xenograft; 15 min post injection) was 3.6±1.0 %ID/g, the uptake in lung (SKOV3 tumor xenograft; 15 min post injection) was 4.8±1.3 %ID/g and the uptake in muscle (SKOV3 tumor xenograft; 15 min post injection) was 2.8±0.9 %ID/g. The uptake in pancreas (SKOV3 tumor xenograft; 15 min post injection) was 44±15 %ID/g, the uptake in spleen (SKOV3 tumor xenograft; 15 min post injection) was 9.8±4.3 %ID/g and the uptake in tumor (SKOV3 tumor xenograft; 15 min post injection) was 6.2±4.1 %ID/g. The uptake in blood (SKOV3 tumor xenograft; 30 min post injection) was 3.1±0.7 %ID/g, the uptake in bone (SKOV3 tumor xenograft; 30 min post injection) was 2.2±0.4 %ID/g and the uptake in brain (SKOV3 tumor xenograft; 30 min post injection) was 0.5±0.1 %ID/g. For the same compound, the uptake in heart (SKOV3 tumor xenograft; 30 min post injection) was 2.8±0.5 %ID/g, the uptake in kidney (SKOV3 tumor xenograft; 30 min post injection) was 22±4.9 %ID/g and the uptake in liver (SKOV3 tumor xenograft; 30 min post injection) was 3.9±0.6 %ID/g. It also gave an uptake in lung (SKOV3 tumor xenograft; 30 min post injection) of 4.4±0.7 %ID/g, an uptake in muscle (SKOV3 tumor xenograft; 30 min post injection) of 2.8±0.5 %ID/g and an uptake in pancreas (SKOV3 tumor xenograft; 30 min post injection) of 40±13 %ID/g. It also gave an uptake in spleen (SKOV3 tumor xenograft; 30 min post injection) of 8.4±2.1 %ID/g, an uptake in tumor (SKOV3 tumor xenograft; 30 min post injection) of 7.3±3.0 %ID/g and an uptake in blood (SKOV3 tumor xenograft; 60 min post injection) of 2.1±0.6 %ID/g. It also gave an uptake in bone (SKOV3 tumor xenograft; 60 min post injection) of 1.7±0.6 %ID/g, an uptake in brain (SKOV3 tumor xenograft; 60 min post injection) of 0.6±0.2 %ID/g and an uptake in heart (SKOV3 tumor xenograft; 60 min post injection) of 2.6±0.7 %ID/g. For the same compound, the uptake in kidney (SKOV3 tumor xenograft; 60 min post injection) was 15±4.8 %ID/g, the uptake in liver (SKOV3 tumor xenograft; 60 min post injection) was 3.6±1.1 %ID/g and the uptake in lung (SKOV3 tumor xenograft; 60 min post injection) was 3.2±1.1 %ID/g. The uptake in muscle (SKOV3 tumor xenograft; 60 min post injection) was 2.2±0.7 %ID/g, the uptake in pancreas (SKOV3 tumor xenograft; 60 min post injection) was 36±8.6 %ID/g and the uptake in spleen (SKOV3 tumor xenograft; 60 min post injection) was 5.5±1.2 %ID/g. The uptake in tumor (SKOV3 tumor xenograft; 60 min post injection) was 6.2±3.1 %ID/g, the uptake in bone (SKOV3 tumor xenograft; 120 min post injection) was 1.6±1.1 %ID/g and the uptake in brain (SKOV3 tumor xenograft; 120 min post injection) was 0.7±0.3 %ID/g. The uptake in heart (SKOV3 tumor xenograft; 120 min post injection) was 2.6±1.4 %ID/g, the uptake in kidney (SKOV3 tumor xenograft; 120 min post injection) was 11±5.0 %ID/g and the uptake in liver (SKOV3 tumor xenograft; 120 min post injection) was 3.2±0.7 %ID/g. It also gave an uptake in lung (SKOV3 tumor xenograft; 120 min post injection) of 2.3±0.8 %ID/g, an uptake in muscle (SKOV3 tumor xenograft; 120 min post injection) of 1.7±0.9 %ID/g and an uptake in pancreas (SKOV3 tumor xenograft; 120 min post injection) of 22±3.6 %ID/g. For the same compound, the uptake in spleen (SKOV3 tumor xenograft; 120 min post injection) was 4.6±2.3 %ID/g, the uptake in tumor (SKOV3 tumor xenograft; 120 min post injection) was 5.1±1.6 %ID/g and the “ratio of tumor to muscle” value [5] was “above 2”.

Reference: PMC4268243 (Nuclear medicine and biology, 2014)
